Source: US9346761B2, “Arginine methyltransferase inhibitors and uses thereof” (Epizyme, Inc., priority 2013, dated 2016)

Assays:
[1] = molecular target: T1, Full-length human PRMT1 isoform 1 (Homo sapiens, UniProt Q99873); assay: PRMT1 biochemical assay (3H-SAM Flashplate, peptide substrate)
T1 construct: GST-tagged PRMT1; made in house; host or cells: High Five insect cells (baculovirus, pFastBacI)
Description: (§1) General Materials. S-adenosylmethionine (SAM), S-adenosylhomocysteine (SAH), bicine, Tween20, dimethylsulfoxide (DMSO), bovine skin gelatin (BSG), and Tris(2-carboxyethyl)phosphine hydrochloride solution (TCEP) were purchased from Sigma-Aldrich at the highest level of purity possible. ^3H-SAM was purchase from American Radiolabeled Chemicals with a specific activity of 80 Ci/mmol. 384-well streptavidin Flashplates were purchased from PerkinElmer.
Protein Expression. Recombinant baculovirus were generated according to Bac-to-Bac kit instructions (Life Technologies). […] Infections were carried out at 27° C. for 48 hours, harvested by centrifugation, and stored at −80° C. for purification.
Protein Purification. […] GST-tagged PRMT1 was eluted with 50 mM Tris, 2 mM glutathione, pH 7.8, dialysed in buffer A and concentrated to 1 mg/mL.
(§2) General Procedure for PRMT1 Enzyme Assays on Peptide Substrates. The assays were all performed in a buffer consisting of 20 mM Bicine (pH=7.6), 1 mM TCEP, 0.005% BSG, and 0.002% Tween 20, prepared on the day of use. […] DMSO (1 ul) was added to Columns 11, 12, 23, 24, rows A-H for the maximum signal control and 1 ul of SAH, a known product and inhibitor of PRMT1, was added to columns 11, 12, 23, 24, rows I-P for the minimum signal control. A cocktail (40 ul) containing the PRMT1 enzyme was added by Multidrop Combi (Thermo-Fisher). The compounds were allowed to incubate with PRMT1 for 30 min at room temperature, then a cocktail (10 ul) containing SAM and peptide was added to initiate the reaction (final volume=51 ul). […] The assays were stopped by the addition of non-radiolabeled SAM (10 ul) to a final concentration of 300 uM, which dilutes the ^3H-SAM to a level where its incorporation into the peptide substrate is no longer detectable. 50 ul of the reaction in the 384-well polypropylene plate was then transferred to a 384-well Flashplate and the biotinylated peptides were allowed to bind to the streptavidin surface for at least 1 hour before being washed once with 0.1% Tween20 in a Biotek ELx405 plate washer. The plates were then read in a PerkinElmer TopCount plate reader to measure the quantity of ^3H-labeled peptide bound to the Flashplate surface, measured as disintegrations per minute (dpm) or alternatively, referred to as counts per minute (cpm).
(§3) Where dpm=disintegrations per minute, cmpd=signal in assay well, and min and max are the respective minimum and maximum signal controls.
(§4) Where top and bottom are the normally allowed to float, but may be fixed at 100 or 0 respectively in a 3-parameter fit. The Hill Coefficient normally allowed to float but may also be fixed at 1 in a 3-parameter fit. Y is the % inhibition and X is the compound concentration.

[2] = system: mono-methyl arginine in RKO cells; assay: RKO methylation assay, In Cell Western for mono-methyl arginine and DNA content; format: cell-based; settings: Homo sapiens; In Cell Western, RKO cells, 72 hours, percent activation of mono-methyl arginine signal; read-out: EC30
Description: RKO adherent cells were purchased from ATCC (American Type Culture Collection), Manassas, Va., USA. DMEM/Glutamax medium, penicillin-streptomycin, heat inactivated fetal bovine serum, 0.05% trypsin and D-PBS were purchased from Life Technologies, Grand Island, N.Y., USA. Odyssey blocking buffer, 800CW goat anti-rabbit IgG (H+L) antibody, and Licor Odyssey infrared scanner were purchased from Licor Biosciences, Lincoln, Nebr., USA. Mono-methyl arginine antibody was purchased from Cell Signaling Technology, Danvers, Mass., USA. Methanol was purchased from VWR, Franklin, Mass., USA. 10% Tween 20 was purchased from KPL, Inc., Gaithersburg, Md., USA. […] was purchased from Biostatus Limited, Leicestershire, UK.
RKO adherent cells were maintained in growth medium (DMEM/Glutamax medium supplemented with 10% v/v heat inactivated fetal bovine serum and 100 units/mL penicillin-streptomycin) and cultured at 37° C. under 5% CO2
Cell Treatment, in Cell Western (ICW) for Detection of Mono-Methyl Arginine and DNA Content. […] Compound (100 nL) from a 96-well source plate was added directly to 384 well cell plate. Plates were incubated at 37° C., 5% CO2 for 72 hours. After three days of incubation, plates were brought to room temperature outside of the incubator for ten minutes and blotted on paper towels to remove cell media. 50 μL of ice cold 100% methanol was added directly to each well and incubated for 30 min at room temperature. After 30 min, plates were transferred to a Biotek EL406 plate washer and washed 2 times with 100 μL per well of wash buffer (1×PBS). Next 60 μL per well of Odyssey blocking buffer (Odyssey Buffer with 0.1% Tween 20 (v/v)) were added to each plate and incubated 1 hour at room temperature. Blocking buffer was removed and 20 μL per well of primary antibody was added (mono-methyl arginine diluted 1:200 in Odyssey buffer with 0.1% Tween 20 (v/v)) and plates were incubated overnight (16 hours) at 4° C. Plates were washed 5 times with 100 μL per well of wash buffer. […] The plates were washed 5 times with 100 μL per well wash buffer then 2 times with 100 μL per well of water. Plates were allowed to dry at room temperature then imaged on the Licor Odyssey machine which measures integrated intensity at 700 nm and 800 nm wavelengths. Both 700 and 800 channels were scanned.
Calculations: First, the ratio for each well was determined by:
Each plate included fourteen control wells of DMSO only treatment (minimum activation) as well as fourteen control wells for maximum activation treated with 20 μM of a reference compound. The average of the ratio values for each control type was calculated and used to determine the percent activation for each test well in the plate. Reference compound was serially diluted three-fold in DMSO for a total of nine test concentrations, beginning at 20 μM. Percent activation was determined and EC30 curves were generated using triplicate wells per concentration of compound.

[3] = molecular target: T2, Full-length human PRMT6 (Homo sapiens, UniProt Q96LA8); assay: PRMT6 biochemical assay (3H-SAM Flashplate, peptide substrate)
T2 construct: Flag-PRMT6-His was eluted with 200 ug/ml FLAG peptide in the same buffer; made in house; host or cells: HEK 293F cells (BacMam virus, pFastBacMam)
T2 sequence (Q96LA8 with tags, fused parts or gaps): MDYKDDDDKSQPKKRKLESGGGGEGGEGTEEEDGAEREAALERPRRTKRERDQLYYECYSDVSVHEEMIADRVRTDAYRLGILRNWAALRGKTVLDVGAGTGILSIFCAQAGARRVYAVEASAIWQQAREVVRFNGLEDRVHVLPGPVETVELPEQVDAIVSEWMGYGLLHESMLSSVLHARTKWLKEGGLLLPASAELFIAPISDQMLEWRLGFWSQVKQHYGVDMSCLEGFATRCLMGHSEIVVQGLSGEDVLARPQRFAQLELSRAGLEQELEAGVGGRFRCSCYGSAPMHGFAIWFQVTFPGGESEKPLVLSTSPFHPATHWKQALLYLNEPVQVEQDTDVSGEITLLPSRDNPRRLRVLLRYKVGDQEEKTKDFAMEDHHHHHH
Description: as §1, with “(BSG), sodium butyrate” for “(BSG),”
Substrates. Peptide representative of human histone H4 residues 36-50 was synthesized with an N-terminal linker-affinity tag motif and a C-terminal amide cap by 21st Century Biochemicals.
The amplified gene was subcloned into pFastBacMam (Viva Biotech).
Protein Expression. Recombinant baculovirus were generated according to Bac-to-Bac kit instructions (Life Technologies). […] Infections were carried out at 37° C. for 48 hours, harvested by centrifugation, and stored at −80° C. for purification.
Protein Purification. […] Column was washed with 20 mM imidazole in the same buffer and Flag-PRMT6-His was eluted with 150 mM imidazole. Pooled fractions were dialysed against buffer Ni-A and further purified by anti-flag M2 affinity chromatography. Flag-PRMT6-His was eluted with 200 ug/ml FLAG peptide in the same buffer. Pooled fractions were dialysed in 20 mM Tris, 150 mM NaCl, 10% glycerol and 5 mM β-mercaptoethanol, pH 7.8.
as §2, with “PRMT6” for “PRMT1”, “PRMT6,” for “PRMT1,”, “400” for “300”
as §3, §4

T1 sequence (Q99873 with tags, fused parts or gaps): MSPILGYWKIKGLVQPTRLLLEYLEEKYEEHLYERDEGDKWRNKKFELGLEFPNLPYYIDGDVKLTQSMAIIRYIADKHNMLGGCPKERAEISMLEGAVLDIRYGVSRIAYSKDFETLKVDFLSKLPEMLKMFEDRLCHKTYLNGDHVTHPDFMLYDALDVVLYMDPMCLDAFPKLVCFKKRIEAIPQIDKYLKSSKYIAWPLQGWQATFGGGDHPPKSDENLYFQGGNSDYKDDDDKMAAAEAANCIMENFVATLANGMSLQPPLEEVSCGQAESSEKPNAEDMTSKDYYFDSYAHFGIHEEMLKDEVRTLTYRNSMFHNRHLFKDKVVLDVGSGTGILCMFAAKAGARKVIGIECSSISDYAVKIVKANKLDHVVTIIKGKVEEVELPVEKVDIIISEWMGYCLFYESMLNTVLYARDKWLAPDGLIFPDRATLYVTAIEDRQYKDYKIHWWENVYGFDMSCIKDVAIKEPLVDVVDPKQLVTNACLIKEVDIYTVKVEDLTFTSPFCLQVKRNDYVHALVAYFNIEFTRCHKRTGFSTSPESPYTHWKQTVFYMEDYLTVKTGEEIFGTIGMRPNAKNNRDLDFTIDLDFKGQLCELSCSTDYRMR

SMILES | IC50 [1] [nM] | EC30 [2] [µM] | IC50 [3] [nM]
CNCCN(C)Cc1n[nH]cc1-c1ccc(Oc2cccc(OC)c2)cc1 [Compound 239] | < 100 | < 3 | < 100
CNCCN(C)Cc1n[nH]cc1-c1ccc(Oc2ccccc2)c(C(=O)NC)c1 [Compound 240] | < 100 | 3.01 to 12 | < 100
CNCCN(C)Cc1n[nH]cc1-c1ccc(Oc2ccccc2)c(C(=O)N(C)C)c1 [Compound 241] | < 100 | 3.01 to 12 | < 100
CNCCN(C)Cc1n[nH]cc1-c1cc(C(C)C)cc(C(C)C)c1 [Compound 242] | 101 to 1000 | > 12 | 1010 to 3000
CNCCN(C)Cc1cn(Cc2ccncc2)nc1-c1ccc(OC(C)C)cc1 [Compound 245] | < 100 | < 3 | 101 to 1000
CN(CCN)Cc1c[nH]nc1-c1ccc(Oc2ccccc2F)cc1 [Compound 259] | < 100 | < 3 | < 100
CNCCN(C)Cc1c[nH]nc1-c1cc(OC(C)C)cc(C(C)C)c1 [Compound 260] | < 100 | 3.01 to 12 | 101 to 1000
CNCCN(C)Cc1c[nH]nc1-c1ccc(Oc2cccc(C#N)c2)cc1 [Compound 261] | < 100 | < 3 | < 100
CNCCN(C)Cc1c[nH]nc1-c1ccc(Oc2cccc(C(C)C)c2)cc1 [Compound 262] | < 100 | < 3 | < 100
CNCCN(C)Cc1c[nH]nc1-c1ccc(Oc2cccc(C(=O)NC)c2)cc1 [Compound 263] | < 100 | < 3 | < 100
CNCCN(C)Cc1c[nH]nc1-c1cc(Cl)c(OC(C)C)c(Cl)c1 [Compound 265, N^1-((3-(3,5-dichloro-4-isopropoxyphenyl)-1H-pyrazol-4-yl)methyl)-N^1,N^2-dimethylethane-1,2-diamine] | < 100 | < 3 | < 100
CNCCN(C)Cc1nn(C)cc1-c1ccc(OCCCOC)cc1 [Compound 266] | 101 to 1000 | > 12 | < 100
CNCCN(C)Cc1n[nH]cc1-c1ccc(Oc2cccc(C#N)c2)cc1 [Compound 267] | < 100 | < 3 | < 100
CNCCN(C)Cc1n[nH]cc1-c1ccc(Oc2cccc(C(=O)NC)c2)cc1 [Compound 268] | < 100 | 3.01 to 12 | < 100
CNCCN(C)Cc1n[nH]cc1-c1ccc(Oc2cccc(F)c2)cc1 [Compound 270] | < 100 | < 3 | < 100
CNCCN(C)Cc1n[nH]cc1-c1cc(CC(C)C)cc(CC(C)C)c1 [Compound 271] | < 100 | > 12 | 101 to 1000
CNCCN(C)Cc1n[nH]cc1-c1cc(OC(C)C)cc(C(C)C)c1 [Compound 272] | 101 to 1000 | > 12 | 1010 to 3000
CNCCN(C)Cc1n[nH]cc1-c1cc(Cl)c(OC(C)C)c(Cl)c1 [Compound 273] | < 100 | < 3 | < 100
CNCCN(C)Cc1c[nH]nc1-c1ccc(Oc2ccccc2C(=O)NC)cc1 [Compound 274] | < 100 | < 3 | < 100
CNCCN(C)Cc1n[nH]c(C)c1-c1ccc(OC(C)C)cc1 [Compound 275] | < 100 | < 3 | < 100
CNCCN(C)Cc1c(-c2ccc(OCCCOC)cc2)cnn1C [Compound 276] | > 10000 | > 12 | 1010 to 3000
CNCCN(C)Cc1n[nH]cc1-c1ccc(Oc2cccc(C(C)C)c2)cc1 [Compound 277] | < 100 | > 12 | < 100
CNCCN(C)Cc1n[nH]cc1-c1ccc(Oc2ccccc2F)cc1 [Compound 279, N^1-((4-(4-(2-fluorophenoxy)phenyl)-1H-pyrazol-3-yl)methyl)-N^1,N^2-dimethylethane-1,2-diamine] | < 100 | < 3 | < 100
CC(C)Cc1cc(-c2n[nH]cc2CN(C)CCN)ccc1F [Compound 280] | < 100 | < 3 | < 100
